# Experimental data taken from PMC9578396, “Intrinsic Antibacterial Activity of Xeruborbactam In Vitro: Assessing Spectrum and Mode of Action” (Antimicrobial Agents and Chemotherapy, 2022).
# Read-outs that look alike come from different tables or passages of the source.
# What was measured:
# Acinetobacter baumannii = assay: Broth microdilution MIC (CLSI), Acinetobacter baumannii; format: cell-based; settings: Acinetobacter baumannii
# In short: (§1)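 MICs by CLSI broth microdilution in in-house panels. Strains tested were engineered strains carrying porin and efflux mutation combinations, KPC-producing clinical isolates and derivatives cured of KPC plasmids, and KPC-producing clinical isolates enriched for porin mutations.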
# Escherichia coli = assay: Broth microdilution MIC (CLSI), Escherichia coli; format: cell-based
# In short: as §1
# Pseudomonas aeruginosa = assay: Broth microdilution MIC (CLSI), Pseudomonas aeruginosa; format: cell-based
# In short: as §1
# [1] = test system: A. baumannii strain ATCC 17978; assay: Fluorescence microscopy, cellular morphology; format: cell-based, Acinetobacter baumannii; settings: xeruborbactam, meropenem 1× and 2× MIC; aztreonam 2× MIC; amdinocillin 2 μg/mL
# Protocol: (§2) Single colonies of K. pneumoniae strain KPM1026a, A. baumannii strain ATCC 17978, and P. aeruginosa strain PAM1154 were picked from LB agar plates, inoculated in cation-adjusted Mueller-Hinton broth (CA-MHB), and incubated overnight at 30°C with rolling. Overnight cultures were diluted into fresh CA-MHB and incubated at 30°C, with rolling, until they reached an OD600 of ≈0.12 to 0.15 (equivalent to ~2 × 10^8 CFU/mL). Samples were then treated with compounds and incubated at 30°C, with rolling. After 1 or 2 h of treatment, cells were collected and stained with a dye mix containing FM4-64 (1 μg/mL), DAPI (4′,6-diamidino-2-phenylindole) (2 μg/mL), and SYTOX green (0.5 μM) (Molecular Probes, Invitrogen, or Thermo Fisher Scientific). Cells were transferred onto an agarose pad containing 1.2% agarose and 20% LB medium for microscopy. Microscopy was performed as previously described ([34]).
# [2] = test system: K. pneumoniae strain KPM1026a; assay: Fluorescence microscopy, cellular morphology; format: cell-based, Klebsiella pneumoniae; settings: treated at 1× and 2× MIC, 1 to 2 h, 30°C
# Protocol: as §2
# Klebsiella pneumoniae = assay: microbe, parasite or virus in culture; format: cell-based
# In short: as §1
# [3] = ATCC17978, strain ATCC 17978 (Fig. 6), read-out: MIC
compound,measurement,setting,value
C[C@H]1[C@H](NC(=O)/C(=N\OC(C)(C)C(=O)O)c2csc(N)n2)C(=O)N1S(=O)(=O)O [Aztreonam],MIC,"Acinetobacter baumannii; AB1007 (no beta-lactamase), xeruborbactam 0 µg/ml, read-out: MIC",32 µg/mL
same,MIC,"Acinetobacter baumannii; AB1007, xeruborbactam 2 µg/ml, read-out: MIC",32 µg/mL
same,MIC,"Acinetobacter baumannii; AB1007, xeruborbactam 4 µg/ml, read-out: MIC",16 µg/mL
same,MIC,"Acinetobacter baumannii; AB1007, xeruborbactam 8 µg/ml, read-out: MIC",4 µg/mL
same,MIC,Acinetobacter baumannii; [3],32 µg/mL
same,MIC,"Acinetobacter baumannii; strain AB1007, wild type, read-out: MIC",32 µg/mL
same,MIC,"Acinetobacter baumannii; strain ACM1013, ΔadeIJK",1 µg/mL
same,MIC,"Acinetobacter baumannii; strain ACM1014, ΔadeABC",16 µg/mL
same,MIC,"Acinetobacter baumannii; strain ACM1015, ΔadeIJK ΔadeABC",1 µg/mL
same,MIC,"Acinetobacter baumannii; strain ACM1027, adeN (AdeIJK overexpression)",64 µg/mL
same,MIC,"Acinetobacter baumannii; strain ACM1030, adeS (AdeABC overexpression)",16 µg/mL
same,MIC,"Escherichia coli; EC1078, PBP2 same as MG1655, PBP3 I332V",64
same,MIC,"Escherichia coli; EC1081, PBP2 same as MG1655, PBP3 Q227H",64
same,MIC,"Escherichia coli; EC1085, PBP2 T331P, PBP3 A233T I332V",2
same,MIC,"Escherichia coli; EC1088, PBP2 A308G, PBP3 same as MG1655",> 64
same,MIC,"Escherichia coli; EC1097, PBP2 M574I, PBP3 Q227H",> 64
same,MIC,"Escherichia coli; EC1098, PBP2 V217M, PBP3 YRIN ins, I532L",64
same,MIC,"Escherichia coli; EC1103, PBP2 same as MG1655, PBP3 YRIN ins, Q227H, E349K, I532L",32
same,MIC,"Escherichia coli; EC1105, PBP2 A543T, PBP3 YRIN ins, Q227H, E349K, I532L",> 64
same,MIC,"Escherichia coli; EC1119, PBP2 same as MG1655, PBP3 YRIN ins, Q227H, E349K, I532L",> 64
same,MIC,"Escherichia coli; EC1121, PBP2 V217M, PBP3 YRIN ins, E349K, I532L",> 64
same,MIC,"Escherichia coli; Escherichia coli, strain ECM5497, wild type, read-out: MIC",0.03 µg/mL
same,MIC,"Escherichia coli; Escherichia coli, strain ECM6001, ΔacrB",0.03 µg/mL
same,MIC,"Pseudomonas aeruginosa; PAM1154 (oprM::Hg), xeruborbactam 0 µg/ml",0.5 µg/mL
same,MIC,"Pseudomonas aeruginosa; Pseudomonas aeruginosa, strain 1089003, alone, read-out: MIC",0.5 µg/mL
same,MIC,"Pseudomonas aeruginosa; Pseudomonas aeruginosa, strain 1097436, alone, read-out: MIC",64 µg/mL
same,MIC,"Pseudomonas aeruginosa; Pseudomonas aeruginosa, strain 1098916, alone, read-out: MIC",0.5 µg/mL
same,MIC,"Pseudomonas aeruginosa; Pseudomonas aeruginosa, strain 1104168, alone, read-out: MIC",1 µg/mL
same,MIC,"Pseudomonas aeruginosa; Pseudomonas aeruginosa, strain 1104284, alone, read-out: MIC",0.5 µg/mL
same,MIC,"Pseudomonas aeruginosa; Pseudomonas aeruginosa, strain 1106973, alone, read-out: MIC",2 µg/mL
same,MIC,"Pseudomonas aeruginosa; Pseudomonas aeruginosa, strain 1109744, alone, read-out: MIC",0.5 µg/mL
same,MIC,"Pseudomonas aeruginosa; Pseudomonas aeruginosa, strain 1113238, alone, read-out: MIC",32 µg/mL
same,MIC,"Pseudomonas aeruginosa; Pseudomonas aeruginosa, strain 1113634, alone, read-out: MIC",4 µg/mL
same,MIC,"Pseudomonas aeruginosa; Pseudomonas aeruginosa, strain 1116835, alone, read-out: MIC",0.5 µg/mL
same,MIC,"Pseudomonas aeruginosa; Pseudomonas aeruginosa, strain 1116849, alone, read-out: MIC",2 µg/mL
same,MIC,"Pseudomonas aeruginosa; Pseudomonas aeruginosa, strain 1118234, alone, read-out: MIC",32 µg/mL
same,MIC,"Pseudomonas aeruginosa; Pseudomonas aeruginosa, strain 1119418, alone, read-out: MIC",32 µg/mL
same,MIC,"Pseudomonas aeruginosa; Pseudomonas aeruginosa, strain 1125954, alone, read-out: MIC",1 µg/mL
same,MIC,"Pseudomonas aeruginosa; Pseudomonas aeruginosa, strain 1125996, alone, read-out: MIC",> 64 µg/mL
same,MIC,"Pseudomonas aeruginosa; Pseudomonas aeruginosa, strain 1126521, alone, read-out: MIC",0.5 µg/mL
same,MIC,"Pseudomonas aeruginosa; Pseudomonas aeruginosa, strain 1126957, alone, read-out: MIC",> 64 µg/mL
same,MIC,"Pseudomonas aeruginosa; Pseudomonas aeruginosa, strain 1126982, alone, read-out: MIC",0.5 µg/mL
same,MIC,"Pseudomonas aeruginosa; Pseudomonas aeruginosa, strain 1128636, alone, read-out: MIC",2 µg/mL
same,MIC,"Pseudomonas aeruginosa; Pseudomonas aeruginosa, strain 1128674, alone, read-out: MIC",4 µg/mL
same,MIC,"Pseudomonas aeruginosa; Pseudomonas aeruginosa, strain 1130447, alone, read-out: MIC",> 64 µg/mL
same,MIC,"Pseudomonas aeruginosa; Pseudomonas aeruginosa, strain PAM1020, wild type, read-out: MIC",4 µg/mL
same,MIC,"Pseudomonas aeruginosa; Pseudomonas aeruginosa, strain PAM1032, nalB (MexAB-OprM overexpression)",16 µg/mL
same,MIC,"Pseudomonas aeruginosa; Pseudomonas aeruginosa, strain PAM1033, nfxB (MexCD-OprJ overexpression)",1 µg/mL
same,MIC,"Pseudomonas aeruginosa; Pseudomonas aeruginosa, strain PAM1034, nfxC (MexEF-OprN overexpression)",4 µg/mL
same,cellular morphology,[1],increase in cell length
CC1(C)S[C@@H]2[C@H](/N=C/N3CCCCCC3)C(=O)N2[C@H]1C(=O)O [Mecillinam],MIC,Acinetobacter baumannii; [3],128 µg/mL
same,MIC,"Acinetobacter baumannii; ATCC17978, strain ATCC 17978, read-out: MIC",> 256 µg/mL
same,MIC,"Pseudomonas aeruginosa; Pseudomonas aeruginosa, strain PAM1154 (Fig. 6), read-out: MIC",128 µg/mL
same,cellular morphology,[1],bacterial cell rounding but not swelling
same,cellular morphology,[2],cell rounding
same,MIC,"Klebsiella pneumoniae; KPM1026a (no beta-lactamase), xeruborbactam 0 µg/ml",0.25 µg/mL
same,MIC,"Klebsiella pneumoniae; KPM1026a, xeruborbactam 2 µg/ml",0.25 µg/mL
same,MIC,"Klebsiella pneumoniae; KPM1026a, xeruborbactam 4 µg/ml",0.125 µg/mL
same,MIC,"Klebsiella pneumoniae; KPM1026a, xeruborbactam 8 µg/ml",0.06 µg/mL
same,MIC,"Klebsiella pneumoniae; Klebsiella pneumoniae, KPM1026a, alone, read-out: MIC",0.25 µg/mL
same,MIC,"Klebsiella pneumoniae; Klebsiella pneumoniae, KPM1026a, parent, read-out: MIC",0.25 µg/mL
same,MIC,"Klebsiella pneumoniae; Klebsiella pneumoniae, KPM3532 (TolQ::M189K), alone",> 64 µg/mL
same,MIC,"Klebsiella pneumoniae; Klebsiella pneumoniae, KPM3532, TolQ::M189K",> 64 µg/mL
same,MIC,"Klebsiella pneumoniae; Klebsiella pneumoniae, KPM3534 (TolQ::S31F), alone",> 64 µg/mL
same,MIC,"Klebsiella pneumoniae; Klebsiella pneumoniae, KPM3534, TolQ::S31F",> 64 µg/mL
same,MIC,"Klebsiella pneumoniae; Klebsiella pneumoniae, KPM4235, TolQ::IP(183–1844)PR",> 64 µg/mL
same,MIC,"Klebsiella pneumoniae; Klebsiella pneumoniae, KPM4236, TolQ::TAA at aa 103",> 64 µg/mL
same,MIC,"Klebsiella pneumoniae; Klebsiella pneumoniae, KPM4238, TolQ::S25F",> 64 µg/mL
same,MIC,"Klebsiella pneumoniae; Klebsiella pneumoniae, KPM4239, TolQ::S28F",> 64 µg/mL
same,MIC,"Klebsiella pneumoniae; Klebsiella pneumoniae, KPM4240, TolQ::S25Y",> 64 µg/mL
same,MIC,"Klebsiella pneumoniae; Klebsiella pneumoniae, strain KPM1026a measured at 30°C (Fig. 6), read-out: MIC",128 µg/mL
